Data from PMC6450673, “Targeted degradation of aberrant tau in frontotemporal dementia patient-derived neuronal cell models” (eLife, 2019).
“And” between values parts separate entries of the source, which are not always exact repeats. Identical values can stand only once.

Legend:
[1] = target: T1, total tau (TAU5) in non-mutant control iPSC-derived neurons (Homo sapiens, UniProt P10636); experiment: Human total tau ELISA in control neurons 1-3; format: cell-based; details: for TAU5 (total tau by ELISA, relative to vehicle-treated): Control 3, CTR2-L17-RC2, 24h, replicate values
T1 construct: modeling pathogenic tau species without the need for overexpression of heterologous genes; endogenous in cells; host or cells: 8330-8-RC1, MGH2069-RC1, CTR2-L17-RC2 human iPSC-derived neurons
From the text: (§1) Cells from individuals carrying the tau risk variant A152T (c.1407G > A; NCBI RefSeq NM_001123066, rs143624519), the autosomal dominant mutation P301L (c.C1907T; NCBI NM_001123066, rs63751273), or age-matched non-mutant WT tau were employed in this study (Figure 2—source data 1). Dermal fibroblasts from the tau-P301L carrier and the healthy individual were generated from a skin biopsy from subjects within the MGH Frontotemporal Disorders Unit as part of the MGH Neurodegeneration Repository. Approval for human subjects’ work was obtained under a Partners/MGH-approved IRB Protocol (#2010P001611/MGH). Fibroblasts were reprogrammed into iPSCs, which were subsequently converted into cortical-enriched neural progenitor cells (NPCs) and differentiated into neuronal cells as previously described ([Almeida et al., 2012]; [Seo et al., 2017]; [Silva et al., 2016]; [Sheridan et al., 2011]) (Silva MC, Manuscript in preparation, 2019). Briefly, cells were cultured in 6-well (Fisher Scientific Corning, Pittsburgh, PA) or 96-well (Fisher Scientific Corning) plates coated with poly-ornithine (20 μg/mL in water, Sigma, St. Louis, MO) and laminin (5 μg/mL in PBS, Sigma) (POL-coated), in DMEM/F12-B27 media [70% DMEM (Gibco, Carlsbad, CA), 30% Ham’s-F12 (Fisher Scientific Corning), 2% B27 (Gibco), 1% penicillin-streptomycin (Gibco)]. Media was supplemented with EGF (20 ng/mL, Sigma), FGF (20 ng/mL, Stemgent, Cambridge, MA) and heparin (5 μg/mL, Sigma), to promote NPC proliferation and expansion. The growth factors were withdrawn to promote neural differentiation for 6 to 8 weeks, with half media change two times per week. Cell lines’ identity was authenticated by SANGER sequencing, karyotyping and ACGH analysis at different stages of culture maintenance from iPSC to NPC. All working cell lines tested negative for mycoplasma contamination.
(§2) Compound treatment in six-well plates was performed in 2 mL media volume by removing 1 mL of conditioned media from the culture and adding 1 mL of new media pre-mixed with the compound at the appropriate 2X concentration, followed by incubation at 37°C for the designated period of time. Compound treatment in 96-well plates was performed in 100 μL media volume by adding compound directly to each well, followed by incubation at 37°C. When testing the effect of drug pre-treatment, the first compound was added as described above for the period of time needed, and then QC-01–175 was added directly onto the media without media exchange.
(§3) Neuronal cells differentiated in six-well plate format for 6 weeks, were collected as described for western blotting, and lysed in ELISA-compatible buffer (Invitrogen FNN0011), supplemented with 1 mM PMSF, protease (Roche) and phosphatase (Sigma) inhibitors cocktails, for 30 min on ice with quick vortexing. Lysates were clarified by centrifugation at 13,000 rpm at 4°C for 10 min. The clear lysates were then transferred to new microfuge tubes and total protein concentration was quantified with the Pierce BCA Protein Assay Kit (ThermoFisher Scientific). ELISA assays were performed according to manufacturer instructions: Human Total Tau ELISA (Invitrogen Kit KHB0041/KHB0042) and P-Tau[pS396] Human ELISA Kit (Invitrogen Kit KHB7031). Data was plotted using GraphPad Prism version 8.0.

[2] = target: T2, P-tau S396 in non-mutant control iPSC-derived neurons (Homo sapiens, UniProt P10636); experiment: P-Tau[pS396] ELISA in control neurons 1-3; format: cell-based; details: for S396 P-Tau (ELISA, relative to vehicle-treated): replicate values; for degradation of P-tau S396: 24 hr
T2 construct: modeling pathogenic tau species without the need for overexpression of heterologous genes; endogenous in cells; host or cells: 8330-8-RC1, MGH2069-RC1, CTR2-L17-RC2 human iPSC-derived neurons
From the text: as §1, §2, §3

[3] = system: total tau (TAU5) in P301L neurons; experiment: Western blot of total tau in P301L neurons; format: cell-based, human
From the text: as §1
Compound treatment in six-well plates was performed in 2 mL media volume by removing 1 mL of conditioned media from the culture and adding 1 mL of new media pre-mixed with the compound at the appropriate 2X concentration, followed by incubation at 37°C for the designated period of time. […]
Neurons differentiated in six-well plates for 6 weeks were washed and collected in PBS, lysed in RIPA buffer (Boston Bio-Products, Boston, MA) supplemented with 2% SDS (Sigma), protease inhibitors cocktail (Roche Complete Mini tablets, Mannheim, Germany), and phosphatase inhibitors cocktail (Sigma), followed by water sonication (Bransonic Ultrasonic Baths, Thomas Scientific, Danbury, CT) and 20,000 g centrifugation for 20 min. Supernatants were transferred to new tubes and total protein concentration was quantified with the Pierce BCA Protein Assay Kit (ThermoFisher Scientific, Carlsbad, CA). […]

A152T neurons = experiment: Neuronal stress and viability assay, rescue of Aβ(1-42) toxicity (Alamar Blue); format: cell-based, human

T1 sequence (P10636 1-441 isoform P10636-8, stated change not applied): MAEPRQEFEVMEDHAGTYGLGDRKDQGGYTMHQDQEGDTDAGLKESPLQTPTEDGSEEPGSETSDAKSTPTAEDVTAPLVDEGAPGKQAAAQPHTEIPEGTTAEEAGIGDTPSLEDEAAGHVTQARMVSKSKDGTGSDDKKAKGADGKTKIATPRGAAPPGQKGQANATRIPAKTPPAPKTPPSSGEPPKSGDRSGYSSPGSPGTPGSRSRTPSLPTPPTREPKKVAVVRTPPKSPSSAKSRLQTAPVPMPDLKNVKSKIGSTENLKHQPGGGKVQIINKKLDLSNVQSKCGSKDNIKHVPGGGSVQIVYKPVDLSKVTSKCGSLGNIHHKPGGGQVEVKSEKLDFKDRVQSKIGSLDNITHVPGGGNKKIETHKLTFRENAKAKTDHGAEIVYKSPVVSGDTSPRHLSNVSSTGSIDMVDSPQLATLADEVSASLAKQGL
T2 sequence (P10636 1-441 isoform P10636-8, stated change not applied): as above

For `O=C(CCc1ccc2c(c1)[nH]c1ccncc12)NCCOCCOCCNc1cccc2c1C(=O)N(C1CCC(=O)NC1=O)C2=O` (stereo not drawn) [QC-01–175], the “TAU5 (total tau by ELISA, relative to vehicle-treated)” value ([1]; 0.1 μM) was 1.08 and 0.96 and 0.93 and 1.00, the “TAU5 (total tau by ELISA, relative to vehicle-treated)” value ([1]; 1 μM) was 0.91 and 0.81 and 0.71 and 0.95 and the “TAU5 (total tau by ELISA, relative to vehicle-treated)” value ([1]; 10 μM) was 0.93 and 0.83 and 1.17 and 0.95. For the same compound, the degradation of tau ([1]; all three control neurons, ELISA, 24 hr, concentrations up to 1 μM) was “No significant degradation”, the “degradation of total tau” value ([1]; control line 1, 10 μM, 24 hr) was ~ 20% and the “degradation of total tau” value ([1]; control line 2, 10 μM, 24 hr) was ~ 20%. For the same compound, the “degradation of total tau” value ([1]; control line 3, 10 μM, 24 hr) was “no effect”, the “dose dependence of effect on tau, ELISA” value ([1]; control neurons (8330–8-RC1, MGH2069-RC1, CTR2-L17-RC2), 24 hr) was “did not show a dose-dependent effect” and the “S396 P-Tau (ELISA, relative to vehicle-treated)” value ([2]; Control 1, 8330-8-RC1, 24h, 0.001 μM) was 0.90 and 1.07 and 1.00 (2×). The “S396 P-Tau (ELISA, relative to vehicle-treated)” value ([2]; Control 1, 8330-8-RC1, 24h, 0.01 μM) was 0.97 (2×) and 0.67 and 0.90, the “S396 P-Tau (ELISA, relative to vehicle-treated)” value ([2]; Control 1, 8330-8-RC1, 24h, 0.1 μM) was 0.71 and 0.84 and 1.21 and 0.90 and the “S396 P-Tau (ELISA, relative to vehicle-treated)” value ([2]; Control 1, 8330-8-RC1, 24h, 1 μM) was 0.85 and 1.01 and 0.80 and 0.95. For the same compound, the “S396 P-Tau (ELISA, relative to vehicle-treated)” value ([2]; Control 1, 8330-8-RC1, 24h, 10 μM) was 0.55 and 0.65 and 0.77 and 0.86, the “S396 P-Tau (ELISA, relative to vehicle-treated)” value ([2]; Control 2, MGH2069-RC1, 24h, 0.001 μM) was 0.71 and 0.83 and 1.11 and 0.91 and the “S396 P-Tau (ELISA, relative to vehicle-treated)” value ([2]; Control 2, MGH2069-RC1, 24h, 0.01 μM) was 0.89 and 1.05 and 1.10 and 0.99. The “S396 P-Tau (ELISA, relative to vehicle-treated)” value ([2]; Control 2, MGH2069-RC1, 24h, 0.1 μM) was 0.85 and 1.00 and 0.99 and 1.30, the “S396 P-Tau (ELISA, relative to vehicle-treated)” value ([2]; Control 2, MGH2069-RC1, 24h, 1 μM) was 1.14 (2×) and 1.04 and 0.97 and the “S396 P-Tau (ELISA, relative to vehicle-treated)” value ([2]; Control 2, MGH2069-RC1, 24h, 10 μM) was 0.95 and 1.12 and 0.78 and 0.91. For the same compound, the “S396 P-Tau (ELISA, relative to vehicle-treated)” value ([2]; Control 3, CTR2-L17-RC2, 24h, 0.001 μM) was 0.94 and 0.77 and 0.84 and 1.00, the “S396 P-Tau (ELISA, relative to vehicle-treated)” value ([2]; Control 3, CTR2-L17-RC2, 24h, 0.01 μM) was 1.06 and 1.13 and 1.00 and 0.97 and the “S396 P-Tau (ELISA, relative to vehicle-treated)” value ([2]; Control 3, CTR2-L17-RC2, 24h, 0.1 μM) was 0.95 and 0.78 and 1.00 and 0.90. The “S396 P-Tau (ELISA, relative to vehicle-treated)” value ([2]; Control 3, CTR2-L17-RC2, 24h, 1 μM) was 1.03 and 0.85 and 0.87 and 0.72, the “S396 P-Tau (ELISA, relative to vehicle-treated)” value ([2]; Control 3, CTR2-L17-RC2, 24h, 10 μM) was 0.70 and 0.95 and 0.89 and 0.74 and the “degradation of P-tau S396” value ([2]; all three control neurons, ELISA, concentrations up to 1 μM) was “No significant degradation”. The “degradation of P-tau S396” value ([2]; control line 1, 10 μM) was ~ 40%, the “degradation of P-tau S396” value ([2]; control line 2, 10 μM) was “no significant effect” and the “degradation of P-tau S396” value ([2]; control line 3, 10 μM) was “no significant effect”. The “TAU5 (relative to vehicle)” value ([3]; QC-01-175 0.001 μM, 8 h treatment) was 0.95 and 0.90 and 0.56 and 0.94 and 0.68 and 0.86, the “TAU5 (relative to vehicle)” value ([3]; QC-01-175 1 μM, 4 h treatment) was 1.07 and 1.10 and 0.76 and 0.60 and 0.72 and 0.88 and the “reduction in total tau” value ([3]; western blot, 1 μM, 24 hr) was 70%. For the same compound, the “% Viability (Relative to Vehicle)” value (A152T neurons; 5μM compound alone, replicates I-VI, 5 µM) was 78.5% and 107.2% and 115.8% and 105.0% and 96.7% and 93.6%, the “neuronal viability, compound alone” value (A152T neurons; A152T neurons, 24 hr treatment, 5 μM) was “no change in neuronal viability” and the viability at 5 µM (A152T neurons; Homo sapiens, Neuron, read-out: viability after Aβ(1-42) stressor, relative to vehicle-alone control, A152T neurons 8 weeks, 5 μM pre-treatment 8 hr, then 10 μM Aβ(1-42) for 16 hr) was 90%.
